ChEMBL document CHEMBL1125132, “Synthesis and inhibitory potency of peptides corresponding to the subunit 2 C-terminal region of herpes virus ribonucleotide reductases” (J Med Chem, 1990)
Numbered stars: 1 amine (or outer) side, 2 acyl side, 3 side chain; on linkers, the order of the positions; unused ones are H or OH. Square brackets hold non-standard residues; d marks the D form. Peptide text beside a SMILES is read from it. * marks the point of attachment. ξ: configuration not given here. X1 = CC(C)[C@@H](C(=O)[*:2])N(CCCCCCCCO[*:3])[*:1]; Desaminotyrosyl = O=C(CCc1ccc(O)cc1)*; Thr(3ξ) = CC(O)[C@H](N)C(=O)O

Legend:
[1] = target: T1, Ribonucleoside-diphosphate reductase large subunit (Herpes simplex virus (type 1 / strain 17), UniProt P08543); test: Inhibitory activity was determined against HSV-1 Ribonucleoside diphosphate reductase; set-up: species or system Human alphaherpesvirus 1
T1 sequence (P08543 whole entry): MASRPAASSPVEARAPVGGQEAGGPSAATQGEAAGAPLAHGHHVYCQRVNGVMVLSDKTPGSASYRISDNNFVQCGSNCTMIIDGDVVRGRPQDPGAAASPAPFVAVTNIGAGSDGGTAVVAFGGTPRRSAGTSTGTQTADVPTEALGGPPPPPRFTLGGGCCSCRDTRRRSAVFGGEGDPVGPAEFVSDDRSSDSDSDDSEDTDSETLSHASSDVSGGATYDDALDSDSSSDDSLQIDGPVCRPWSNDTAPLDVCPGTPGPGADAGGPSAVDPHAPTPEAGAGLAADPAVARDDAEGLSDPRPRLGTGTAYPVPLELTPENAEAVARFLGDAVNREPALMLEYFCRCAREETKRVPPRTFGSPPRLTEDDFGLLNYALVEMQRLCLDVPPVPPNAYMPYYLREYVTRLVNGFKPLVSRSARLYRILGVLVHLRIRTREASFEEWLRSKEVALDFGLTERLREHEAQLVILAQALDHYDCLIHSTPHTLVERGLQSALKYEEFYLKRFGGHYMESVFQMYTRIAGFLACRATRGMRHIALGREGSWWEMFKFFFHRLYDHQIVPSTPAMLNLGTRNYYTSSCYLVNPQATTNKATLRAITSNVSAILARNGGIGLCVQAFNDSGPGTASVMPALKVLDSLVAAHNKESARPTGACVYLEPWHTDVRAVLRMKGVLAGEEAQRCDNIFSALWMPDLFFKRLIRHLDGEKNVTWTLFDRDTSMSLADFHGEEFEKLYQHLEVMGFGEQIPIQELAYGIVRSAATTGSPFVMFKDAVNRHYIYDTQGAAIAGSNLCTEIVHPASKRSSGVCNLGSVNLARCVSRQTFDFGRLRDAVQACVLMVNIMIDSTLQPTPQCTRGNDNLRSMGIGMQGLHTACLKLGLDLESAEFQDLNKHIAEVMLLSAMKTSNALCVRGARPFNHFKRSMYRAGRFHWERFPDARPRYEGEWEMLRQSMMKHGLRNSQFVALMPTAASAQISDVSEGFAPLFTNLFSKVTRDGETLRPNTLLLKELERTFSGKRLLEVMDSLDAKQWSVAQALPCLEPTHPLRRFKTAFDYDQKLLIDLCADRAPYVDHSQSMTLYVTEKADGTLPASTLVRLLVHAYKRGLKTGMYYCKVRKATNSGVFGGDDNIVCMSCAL

[2] = target: T1, Ribonucleoside-diphosphate reductase large subunit; test: Inhibitory activity against HSV-1 Ribonucleoside diphosphate reductase was determined; set-up: species or system Human alphaherpesvirus 1
[3] = Relative inhibition compared to HSV-R2-(329-337) was determined; Inactive at 1 mM
[4] = Relative inhibition compared to HSV-R2-(329-337) was determined; Inactive at 2 mM

Row | Compound | IC50 [1] [µM] | IC50 [2] [µM] | Relative inhibition [3] [%] | Relative inhibition [4] [%]
1 | H-YAGAVANDL-OH | 760 | 60 | – | –
2 | H-AVVNDL-OH | 190 | 190 | – | –
3 | H-KYAGAVVNDL-OH | – | 55 | – | –
4 | H-YAGAVVNDF-OH | – | – | 0 | –
5 | CC(C)C[C@H](NC(=O)[C@H](CC(=O)O)NC(=O)[C@H](CC(N)=O)NC(=O)[C@@H](NC(=O)[C@@H](NC(=O)[C@H](C)NC(=O)CNC(=O)[C@H](C)NC(=O)[C@H](Cc1ccc(O)cc1)NC(=O)CCCCCCCN)C(C)C)C(C)C)C(=O)O | 12 | 44 | – | –
6 | H-YAGAVVNDI-OH | 153 | 55 | – | –
7 | H-STSYAGAVVNDL-OH | 29 | 60 | – | –
8 | Ac-YAGVVNDL-OH | – | 60 | – | –
9 | CC(=O)N[C@H](C(=O)N[C@H](C(=O)N[C@@H](CC(N)=O)C(=O)N[C@@H](CC(=O)O)C(=O)N[C@@H](CC(C)C)C(=O)O)C(C)C)C(C)C | 400 | 60 | – | –
10 | CC(C)C[C@H](NC(=O)[C@H](CC(=O)O)NC(=O)[C@H](CC(N)=O)NC(=O)[C@@H](NC(=O)[C@@H](NC(=O)[C@H](C)NC(=O)CNC(=O)[C@H](C)NC(=O)[C@H](Cc1ccc(O)cc1)NC(=O)[C@H](CO)NC(=O)[C@@H](NC(=O)[C@H](CO)NC(=O)[C@H](CCCN=C(N)N)NC(=O)[C@H](CS)NC(=O)[C@H](CCC(=O)O)NC(=O)[C@H](Cc1ccccc1)NC(=O)[C@H](Cc1ccccc1)NC(=O)[C@H](CC(=O)O)NC(=O)[C@@H](N)[C@@H](C)O)[C@@H](C)O)C(C)C)C(C)C)C(=O)O | 15 | 55 | – | –
11 | CSCC[C@H](NC(=O)[C@@H](NC(=O)[C@@H](N)Cc1ccc(O)cc1)[C@@H](C)O)C(=O)N[C@@H](CC(C)C)C(=O)N[C@H](C(=O)N[C@H](C(=O)N[C@@H](CC(=O)O)C(=O)N[C@@H](CC(=O)O)C(=O)N[C@@H](CC(C)C)C(=O)O)C(C)C)C(C)C | 110 | 36 | – | –
12 | CC(=O)N[C@H](Cc1ccc(O)cc1)C(=O)N[C@@H](C)C(=O)NCC(=O)N[C@@H](C)C(=O)N[C@H](C(=O)N[C@H](C(=O)N[C@@H](CC(N)=O)C(=O)N[C@@H](CC(=O)O)C(=O)N[C@@H](CC(C)C)C(=O)O)C(C)C)C(C)C | – | 60 | – | –
13 | H-YGAVVNDL-OH | 330 | 60 | – | –
14 | COc1ccc(C[C@H](NC(C)=O)C(=O)N[C@@H](C)C(=O)NCC(=O)N[C@@H](C)C(=O)N[C@H](C(=O)N[C@H](C(=O)N[C@@H](CC(N)=O)C(=O)N[C@@H](CC(=O)O)C(=O)N[C@@H](CC(C)C)C(=O)O)C(C)C)C(C)C)cc1 | – | 60 | – | –
15 | H-GAVVNDL-OH | 225 | 225 | – | –
16 | H-YAGAVVNDV-OH | 846 | 55 | – | –
17 | CC(=O)N[C@@H](Cc1ccc(O)cc1)C(=O)N[C@@H](C)C(=O)NCC(=O)N[C@@H](C)C(=O)N[C@H](C(=O)N[C@H](C(=O)N[C@@H](CC(N)=O)C(=O)N[C@@H](CC(=O)O)C(=O)N[C@@H](CC(C)C)C(=O)O)C(C)C)C(C)C | – | 60 | – | –
18 | H-YAGAVV-OH | – | – | – | 0
19 | H-YAGAAVNDL-OH | – | – | – | 0
20 | H-YAGAVVNDY-OH | – | – | 0 | –
21 | H-YAGAVVND-OH | – | – | – | 0
22 | H-YAGPVVNDL-OH | – | 44 | – | –
23 | H-YAGTVINDL-OH | – | 60 | – | –
24 | H-YAPAVVNDL-OH | 37 | 44 | – | –

Row | Compound | IC50 [1] [µM] | IC50 [2] [µM] | Relative inhibition [3] [%] | Relative inhibition [4] [%]
25 | H-FAGAVVNDL-OH | 90 | 55 | – | –
26 | CC(C)C[C@H](NC(=O)[C@H](CC(=O)O)NC(=O)[C@@H](N)CC(N)=O)C(=O)O (H-Asn-Asp-Leu-OH) | – | – | – | 0
27 | CC[C@H](C)[C@H](NC(=O)[C@@H](NC(=O)CNC(=O)[C@H](C)NC(=O)CCc1ccc(O)cc1)C(C)O)C(=O)N[C@@H](CC(N)=O)C(=O)N[C@@H](CC(=O)O)C(=O)N[C@@H](CC(C)C)C(=O)O (some centres not stated) (Desaminotyrosyl-AG[Thr(3ξ)]INDL-OH) | 13 | 13 | – | –
28 | CC(C)C[C@H](NC(=O)[C@H](CC(=O)O)NC(=O)[C@H](CC(N)=O)NC(=O)[C@@H](NC(=O)[C@@H](NC(=O)[C@H](C)NC(=O)CNC(=O)[C@H](C)NC(=O)CCc1ccc(O)cc1)C(C)C)C(C)C)C(=O)O (Desaminotyrosyl-AGAVVNDL-OH) | 33 | 60 | – | –
29 | CC(=O)N[C@@H](Cc1ccc(O)cc1)C(=O)N[C@H](C)C(=O)NCC(=O)N[C@@H](C)C(=O)N[C@H](C(=O)N[C@H](C(=O)N[C@@H](CC(N)=O)C(=O)N[C@@H](CC(=O)O)C(=O)N[C@@H](CC(C)C)C(=O)O)C(C)C)C(C)C | – | 60 | – | –
30 | CC(=O)N[C@@H](Cc1ccc(O)cc1)C(=O)N[C@@H](C)C(=O)NCC(=O)N[C@@H](C)C(=O)N[C@H](C(=O)N[C@H](C(=O)N[C@@H](CC(N)=O)C(=O)N[C@@H](CC(=O)O)C(=O)N[C@@H](CC(C)C)C(N)=O)C(C)C)C(C)C | – | 60 | – | –
31 | CC(C)C[C@H](NC(=O)[C@H](CC(=O)O)NC(=O)[C@H](CC(N)=O)NC(=O)[C@@H](N)C(C)C)C(=O)O (H-VNDL-OH) | – | – | – | 0
32 | H-HAGAVVNDL-OH | 323 | 55 | – | –
33 | CC(C)C[C@H](NC(=O)[C@H](CC(=O)O)NC(=O)[C@H](CC(N)=O)NC(=O)[C@@H](NC(=O)[C@@H](NCCCCCCCCOC(=O)[C@@H](N)Cc1ccc(O)cc1)C(C)C)C(C)C)C(=O)O (H-[X1](Tyr)VNDL-OH) | 63 | 63 | – | –
34 | H-YAGAVINDL-OH | 33 | 49 | – | –
35 | H-YAGAVVNDA-OH | – | – | 0 | –
36 | H-LAGAVVNDL-OH | 211 | 211 | – | –
37 | H-YAGTVVNDL-OH | 29 | 44 | – | –
38 | H-AAGAVVNDL-OH | 280 | 280 | – | –
39 | Ac-YGAVVNDL-OH | – | 60 | – | –
40 | H-YAGAVVADL-OH | – | – | 0 | –
41 | H-YAGAVVNAL-OH | – | – | 0 | –
42 | H-ECRSTSYAGAVVNDL-OH | 42 | 60 | – | –
43 | H-YAGAVVNDLK-OH | 458 | 55 | – | –
44 | CC(C)C[C@H](NC(=O)[C@H](CC(=O)O)NC(=O)[C@H](CC(N)=O)NC(=O)[C@@H](NC(=O)[C@@H](NC(=O)[C@H](C)NC(=O)CNC(=O)[C@H](C)NC(=O)[C@@H](N)Cc1ccc(O)cc1)C(C)C)C(C)C)C(N)=O | – | 60 | – | –
45 | H-YAVVNDL-OH | – | 60 | – | –
46 | COc1ccc(C[C@H](N)C(=O)N[C@@H](C)C(=O)NCC(=O)N[C@@H](C)C(=O)N[C@H](C(=O)N[C@H](C(=O)N[C@@H](CC(N)=O)C(=O)N[C@@H](CC(=O)O)C(=O)N[C@@H](CC(C)C)C(=O)O)C(C)C)C(C)C)cc1 | – | 60 | – | –
47 | H-YAGAVVN-OH | – | – | – | 0
48 | H-AGAVVNDL-OH | 283 | 36 | – | –
